Test results from publication PMC7688903 (Frontiers in Microbiology, 2020).
Converted amounts (≈) assume the structure as drawn. Marks after values point to notes of the source that are not given here. Where a SMILES comes first, the peptide text is derived from it. [ ]: non-standard residue; d: D form. hArg = N=C(N)NCCCC[C@H](N)C(=O)O; Dab = NCC[C@H](N)C(=O)O; Dap = NC[C@H](N)C(=O)O

What was measured:
[1] = test system: E. coli ATCC 25922; assay type: cell-based, Escherichia coli; conditions: ATCC 25922, 20 h
Method in brief: (§1)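 Inocula were set to 0.5 McFarland and diluted to ~5 × 10^5 CFU/mL (bacteria, MH broth) or 0.5 × 10^3 to 2.5 × 10^3 CFU/mL (yeast, RPMI 1640). Peptide twofold dilutions were added, plates incubated 20 h at 37°C or 48 h at 35°C, then scored by eye.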

[2] = test system: RAW 264.7 cells; assay: Cell viability assay (MTT); assay type: cell-based, mouse; conditions: 1–128 μM peptide in DMEM with 4% FBS, 42 h, 595 nm, triplicate
Method in brief: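 RAW 264.7 cells (1 × 10^4/well, DMEM + 10% FBS) grown overnight to 80% confluency, then exposed to peptides at 1–128 μM in DMEM with 4% FBS for 42 h at 37 °C. MTT read at 595 nm; viability relative to medium-only controls, triplicate, IC50 as 50% loss of viability.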

[3] = test system: S. aureus ATCC 25923; assay: microbe, parasite or virus in culture; assay type: cell-based, Staphylococcus aureus; conditions: ATCC 25923, 20 h
Method in brief: as §1

[4] = test system: C. albicans ATCC 10231; assay: microbe, parasite or virus in culture; assay type: cell-based, Candida albicans; conditions: ATCC 10231, 48 h
Method in brief: as §1

[5] = test system: carbapenem-resistant A. baumannii (CRAB) SIPI-025; assay type: cell-based, Acinetobacter baumannii; conditions: carbapenem-resistant (CRAB) SIPI-025, 20 h
Method in brief: as §1

[6] = test system: A. baumannii ATCC 19606; assay type: cell-based, Acinetobacter baumannii; conditions: ATCC 19606, 20 h
Method in brief: as §1

[7] = test system: P. aeruginosa ATCC 27853; assay type: cell-based, Pseudomonas aeruginosa; conditions: ATCC 27853, 20 h
Method in brief: as §1

[8] = test system: carbapenem-resistant P. aeruginosa (CRPA) SIPI-012; assay type: cell-based, Pseudomonas aeruginosa; conditions: carbapenem-resistant (CRPA) SIPI-012, 20 h
Method in brief: as §1

[9] = test system: human erythrocytes; assay: Hemolytic activity assay; assay type: cell-based; conditions: human RBC in PB, 37°C, 1 h, OD420, total lysis control 0.1% SDS, three technical replicates
Method in brief: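 Washed RBCs from a healthy volunteer were incubated with peptides at 32–128 μM for 1 h at 37°C in PB. Hemoglobin release into the supernatant was read as OD420 against total lysis with 0.1% SDS, in three technical replicates.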

[10] = test system: proteases secreted by S. aureus ATCC 25923; assay: in vitro; conditions: S. aureus ATCC 25923 culture supernatant, pH 8
Method in brief: (§2)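 Cell-free culture supernatants (overnight, 37°C; MH broth for bacteria, 2% tryptone/2% dextrose for yeast) were centrifuged, adjusted to pH 8.0 and 0.22 μm filtered. Peptides at 0.5 mg/mL were incubated in supernatant 24 h at 37°C; remaining intact peptide measured by RP-HPLC, with peptide-free supernatant as negative control.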

[11] = test system: proteases secreted by P. aeruginosa ATCC 27853; assay: in vitro; conditions: P. aeruginosa ATCC 27853 culture supernatant, pH 8
Method in brief: as §2

[12] = test system: proteases secreted by A. baumannii ATCC 19606; assay: in vitro; conditions: A. baumannii ATCC 19606 culture supernatant, pH 8
Method in brief: as §2

[13] = test system: proteases secreted by C. albicans ATCC 10231; assay: in vitro; conditions: C. albicans ATCC 10231 culture supernatant, pH 8
Method in brief: as §2

[14] = test system: human plasma proteases; assay: in vitro

SMILES	MIC [1]	IC50 [2]	MIC [3]	MIC [4]	MIC [5]	MIC [6]	MIC [7]	MIC [8]	Hemolysis rate (%) ([9]; 64 μM)	Hemolysis rate (%) ([9]; 128 μM)	remaining at 24 h, 0.5 mg/mL [10]	remaining at 24 h, 0.5 mg/mL [11]	remaining at 24 h, 0.5 mg/mL [12]	remaining at 24 h, 0.5 mg/mL ([10]; Staphylococcus aureus)	remaining at 24 h, 0.5 mg/mL ([13]; Candida albicans)	metabolised at 2 h, 0.1 mg/mL [14]	metabolised at 4 h, 0.1 mg/mL [14]	remaining at 24 h, 0.5 mg/mL ([12]; Acinetobacter baumannii)	remaining at 24 h, 0.5 mg/mL [13]
CC(C)C[C@H](NC(=O)[C@H](Cc1ccc(O)cc1)NC(=O)[C@H](CCN)NC(=O)[C@H](CC(C)C)NC(=O)[C@H](CC(C)C)NC(=O)[C@H](CN)NC(=O)[C@H](CN)NC(=O)[C@H](Cc1ccccc1)NC(=O)[C@H](CC(C)C)NC(=O)[C@H](CCCCNC(=N)N)NC(=O)[C@@H](N)CN)C(=O)N[C@@H](CCCCNC(=N)N)C(=O)N[C@@H](CCN)C(=O)N[C@@H](Cc1ccccc1)C(N)=O [UP14] (H-[Dap][hArg]LF[Dap][Dap]LL[Dab]YL[hArg][Dab]F-NH2)	2 µg/mL (≈ 1.16 µM)	14 ± 2.67 µM	0.5 µg/mL (≈ 0.29 µM)	4 µg/mL (≈ 2.32 µM)	4 µg/mL (≈ 2.32 µM)	4 µg/mL (≈ 2.32 µM)	2 µg/mL (≈ 1.16 µM)	8 µg/mL (≈ 4.63 µM)	66.51 ± 3.14 %	74.68 ± 1.34 %	57.3 ± 6.54%	27.6 ± 6.76%	12.9 ± 1.48%						
CC(C)C[C@H](NC(=O)[C@H](Cc1ccc(O)cc1)NC(=O)[C@H](CCN)NC(=O)[C@H](CC(C)C)NC(=O)[C@H](CC(C)C)NC(=O)[C@H](CCN)NC(=O)[C@H](CCN)NC(=O)[C@H](Cc1ccccc1)NC(=O)[C@H](CC(C)C)NC(=O)[C@H](CCCCNC(=N)N)NC(=O)[C@@H](N)CCN)C(=O)N[C@@H](CCCCNC(=N)N)C(=O)N[C@@H](CCN)C(=O)N[C@@H](Cc1ccccc1)C(N)=O [UP13] (H-[Dab][hArg]LF[Dab][Dab]LL[Dab]YL[hArg][Dab]F-NH2)	2 µg/mL (≈ 1.13 µM)	21.7 ± 4.14 µM	0.5 µg/mL (≈ 0.283 µM)	4 µg/mL (≈ 2.26 µM)	2 µg/mL (≈ 1.13 µM)	2 µg/mL (≈ 1.13 µM)	2 µg/mL (≈ 1.13 µM)	4 µg/mL (≈ 2.26 µM)	41.03 ± 1.38%	∼100.00* %				78.5 ± 3.39%	34 ± 6.12%				
CC(C)C[C@H](NC(=O)[C@H](Cc1ccc(O)cc1)NC(=O)[C@H](CCCCN)NC(=O)[C@H](CC(C)C)NC(=O)[C@H](CC(C)C)NC(=O)[C@@H](CCCCN)NC(=O)[C@@H](CCCCN)NC(=O)[C@H](Cc1ccccc1)NC(=O)[C@H](CC(C)C)NC(=O)[C@@H](CCCNC(=N)N)NC(=O)[C@H](N)CCCCN)C(=O)N[C@@H](CCCNC(=N)N)C(=O)N[C@H](CCCCN)C(=O)N[C@@H](Cc1ccccc1)C(N)=O [DP05] (H-[dK][dR]LF[dK][dK]LLKYLR[dK]F-NH2)	2 µg/mL (≈ 1.06 µM)	32.7 ± 3.44 µM	1 µg/mL (≈ 0.532 µM)	2 µg/mL (≈ 1.06 µM)	2 µg/mL (≈ 1.06 µM)	1 µg/mL (≈ 0.532 µM)	1 µg/mL (≈ 0.532 µM)	8 µg/mL (≈ 4.25 µM)	30.09 ± 1.56%	45.07 ± 2.93%				66.7 ± 5.9%		> 40%	> 50%	31.7 ± 9%	
CC(C)C[C@H](NC(=O)[C@H](Cc1ccc(O)cc1)NC(=O)[C@H](CCN)NC(=O)[C@H](CC(C)C)NC(=O)[C@H](CC(C)C)NC(=O)[C@H](CCN)NC(=O)[C@H](CCN)NC(=O)[C@H](Cc1ccccc1)NC(=O)[C@H](CC(C)C)NC(=O)[C@H](CCCCNC(=N)N)NC(=O)[C@@H](N)CCN)C(=O)N[C@@H](CCCNC(=N)N)C(=O)N[C@@H](CCN)C(=O)N[C@@H](Cc1ccccc1)C(N)=O [UP12] (H-[Dab][hArg]LF[Dab][Dab]LL[Dab]YLR[Dab]F-NH2)	2 µg/mL (≈ 1.14 µM)	21.2 ± 2.42 µM	1 µg/mL (≈ 0.57 µM)	4 µg/mL (≈ 2.28 µM)	4 µg/mL (≈ 2.28 µM)	2 µg/mL (≈ 1.14 µM)	2 µg/mL (≈ 1.14 µM)	4 µg/mL (≈ 2.28 µM)	45.13 ± 1.95 %	∼100.00* %	69.5 ± 5.97%	20.6 ± 4.3%							37.7 ± 5.24%
